# Experimental data reported in PMC7531004, “Discovery of gramicidin A analogues with altered activities by multidimensional screening of a one-bead-one-compound library” (Nature Communications, 2020).
# “And” between values parts separate entries of the source, which are not always exact repeats. Identical values can stand only once. Like-named read-outs stand apart in the source and are kept apart here. Where a SMILES comes first, the peptide text is derived from it. [ ]: non-standard residue; d: D form. The star is where a group is joined. NHCH2CH2OH = OCCN*; For = O=C*
# Key:
# [1] = Experimental: Second, we examined the cytotoxicity toward mammalian cancer cells and hemolytic activity of 1. […] Hemolytic activity was evaluated by monitoring hemoglobin leakage from rabbit red blood cells as a consequence of membrane damage. The concentration of 1 required to cause 10% hemoglobin leakage (HC10) was 160 nM. Thus, the P388 cytotoxicity of 1 was 28-fold more sensitive than its hemolytic activity.
# Mammalian cytotoxicity assay of purified peptides.
# B22 was diluted with the growth medium with 2% DMSO to various concentrations as 5-fold serial dilution.
# The collected cells were resuspended into
# the growth medium at 2 × 10^4 cells/mL. Aliquots of the former medium (2% DMSO, 100 µL) containing
# peptides and the latter medium containing P388 cells (100 µL) were mixed in a 96-well cell culture plate
# (TR5003, TrueLine). The final concentration of P388 cells and DMSO were 1 × 10^4 cells/mL and 1%,
# respectively. […]
# were determined by WST -1 assay. A solution of 1-methoxy PMS and WST-1 in the growth medium
# (1-methoxy PMS 0.70 mg/mL in Milli-Q/WST-1 3.6 mg/mL in pH 7.4 HEPES buffer = 1/9) was added to
# each well of the plate (20.0 µL/well). The cells were incubated for 4 h under atmosphere of 5% CO 2 at
# 37 °C. The absorbance of each well at 415 nm was measured using a Benchmark microplate reader
# (Bio-Rad) or Thermo Scientifi c Multiskan GO (Thermo Fisher Scientific). The cytotoxicities of the purified
# peptides were evaluated as IC 50 (nM) by means of three replicates. Sigmoidal curve fittings were performed
# [2] = Membrane disruption assay of purified peptides (carboxyfluorescein leakage); type: biochemical; parameters: key: % lysis; Triton X-100 = 100%, DMSO = 0%; settings: three replicate lines
# Experimental: Membrane disruption assay of purified peptides. 5(6)-Carboxyfluorescein (CF)-encapsulated large […]
# through Nuclepore polycarbonate filters mounted in the mini-extruder apparatus. A solution of egg yolk phosphatidylcholine (EYPC, 22.0 mg, 28.9 µmol) in CHCl3 (225 µL) and egg yolk phosphatidylglycerol (1.2 0 […]
# mM HEPES, 100 mM NaCl, 20 mM CF) by sonication. After five -times freeze-thaw cycles, the lipid […]
# concentration of the resultant CF -encapsulated LUV suspension was deduced from the phosphatidylcholine concentration determined by using Phospholipid C -Test Wako. The lipid concentration of the LUV […]
# as 5-fold serial dilution. The solution of peptide (2.0 µL) and the CF-encapsulated LUV suspension (200 […]
# The resultant suspension was incubated at room temperature for 30 min. The fluorescence (Ex. 490 nm/Em. 517 nm) of each well was measured on Gemini EM microplate reader. Triton X-100/H2O (5/95, 3.0 µL), DMSO (2.0 µL), and the LUV suspension were mixed in each plate to determine 100% lysis. […]
# was used to determine 0% lysis. The membrane disruption activities of tested peptides ( I) were normalized against 100% lysis by Triton X-100 (Imax) and 0% lysis by DMSO ( I0) according to Supplementary Equation 2 , where Ix is the fluorescence intensity.
# The membrane disruption activities of the purified peptides were plotted as means of three replicates (Supplementary Figure 1).
# [3] = IC50, mammalian cytotoxicity assay
# [4] = cytotoxicity against P388 cells/IC50
smiles,measurement,setting,value
CC(C)C[C@@H](NC(=O)[C@H](C)NC(=O)CNC(=O)[C@@H](NC=O)C(C)C)C(=O)N[C@@H](C)C(=O)N[C@@H](C(=O)N[C@H](C(=O)N[C@@H](C(=O)N[C@@H](Cc1c[nH]c2ccccc12)C(=O)N[C@@H](C(=O)N[C@@H](Cc1c[nH]c2ccccc12)C(=O)N[C@H](CC(C)C)C(=O)N[C@@H](Cc1c[nH]c2ccccc12)C(=O)N[C@@H](C(=O)N[C@@H](Cc1c[nH]c2ccccc12)C(=O)NCCO)C(C)C)C(C)C)C(C)C)C(C)C)C(C)C [B04] (For-VGA[dL]A[dV]V[dV]W[dV]W[dL]W[dV]W-NHCH2CH2OH),IC50,[1]; Cytotoxicity IC50,41 nM
same,IC50,[1]; [3],34.3 nM
same,IC50,[1]; [4],40.6 ± 5.95 nM
same,Supplementary Figure 1 dose-response value,[2]; concentration 0.000512 nM,5.512 and 4.537 and 0.4455
same,Supplementary Figure 1 dose-response value,[2]; concentration 0.00256 nM,-0.04863 and -3.2 and 2.187
same,Supplementary Figure 1 dose-response value,[2]; concentration 0.0128 nM,9.24 and 8.431 and 0.7987
same,Supplementary Figure 1 dose-response value,[2]; concentration 0.064 nM,3.3 and 2.841 and 2.346
same,Supplementary Figure 1 dose-response value,[2]; concentration 0.32 nM,3.831 and -2.375 and 0.08227
same,Supplementary Figure 1 dose-response value,[2]; concentration 1.6 nM,3.92 and -4.965 and 7.615
same,Supplementary Figure 1 dose-response value,[2]; concentration 8 nM,4.496 and 6.302 and 12.8514
same,Supplementary Figure 1 dose-response value,[2]; concentration 40 nM,10.2052 and 8.412 and 22.8437
same,Supplementary Figure 1 dose-response value,[2]; concentration 200 nM,31.7359 and 28.6719 and 15.6803
same,Supplementary Figure 1 dose-response value,[2]; concentration 1000 nM,31.9617 and 33.3362 and 31.6759
same,Supplementary Figure 1 dose-response value,[2]; concentration 5000 nM,49.4317 and 48.1889 and 46.8231
CC(C)C[C@@H](NC(=O)[C@H](Cc1c[nH]c2ccccc12)NC(=O)[C@H](NC(=O)[C@@H](NC(=O)[C@H](NC(=O)[C@H](C)NC(=O)[C@H](NC(=O)[C@H](C)NC(=O)CNC(=O)[C@@H](NC=O)C(C)C)C(C)C)C(C)C)C(C)C)C(C)C)C(=O)N[C@@H](Cc1c[nH]c2ccccc12)C(=O)N[C@@H](C(=O)N[C@@H](Cc1c[nH]c2ccccc12)C(=O)N[C@@H](C(=O)N[C@@H](Cc1c[nH]c2ccccc12)C(=O)NCCO)C(C)C)C(C)C [B01] (For-VGA[dV]A[dV]V[dV]W[dL]W[dV]W[dV]W-NHCH2CH2OH),IC50,[1]; Cytotoxicity IC50,17 nM
same,IC50,[1]; [4],17.5 ± 12 nM
same,Supplementary Figure 1 dose-response value,[2]; concentration 0.000512 nM,5.613 and 12.0264 and 5.319
same,Supplementary Figure 1 dose-response value,[2]; concentration 0.00256 nM,11.158 and 7.538 and 10.5473
same,Supplementary Figure 1 dose-response value,[2]; concentration 0.0128 nM,8.299 and 14.9537 and 14.0939
same,Supplementary Figure 1 dose-response value,[2]; concentration 0.064 nM,5.499 and 8.531 and 5.078
same,Supplementary Figure 1 dose-response value,[2]; concentration 0.32 nM,13.2144 and 15.7695 and 7.692
same,Supplementary Figure 1 dose-response value,[2]; concentration 1.6 nM,9.848 and 4.6318 and 9.4348
same,Supplementary Figure 1 dose-response value,[2]; concentration 8 nM,14.4288 and 20.3717 and 10.7944
same,Supplementary Figure 1 dose-response value,[2]; concentration 40 nM,26.5947 and 14.0138 and 18.3251
same,Supplementary Figure 1 dose-response value,[2]; concentration 200 nM,33.1976 and 27.0157 and 30.6543
same,Supplementary Figure 1 dose-response value,[2]; concentration 1000 nM,29.7517 and 27.7024 and 34.1347
same,Supplementary Figure 1 dose-response value,[2]; concentration 5000 nM,48.3001 and 45.6479 and 77.7437
CC(C)C[C@@H](NC(=O)[C@H](C)NC(=O)[C@H](NC(=O)[C@H](C)NC(=O)CNC(=O)[C@@H](NC=O)C(C)C)C(C)C)C(=O)N[C@H](C(=O)N[C@@H](C(=O)N[C@@H](Cc1c[nH]c2ccccc12)C(=O)N[C@@H](C(=O)N[C@@H](Cc1c[nH]c2ccccc12)C(=O)N[C@H](CC(C)C)C(=O)N[C@@H](Cc1c[nH]c2ccccc12)C(=O)N[C@H](CC(C)C)C(=O)N[C@@H](Cc1c[nH]c2ccccc12)C(=O)NCCO)C(C)C)C(C)C)C(C)C [B02] (For-VGA[dV]A[dL]V[dV]W[dV]W[dL]W[dL]W-NHCH2CH2OH),IC50,[1]; Cytotoxicity IC50,17 nM
same,IC50,[1]; [3],18.7 nM
same,IC50,[1]; [4],16.8 ± 2.82 nM
same,Supplementary Figure 1 dose-response value,[2]; concentration 0.000512 nM,9.02 and 15.736 and 15.2512
same,Supplementary Figure 1 dose-response value,[2]; concentration 0.00256 nM,10.3575 and 0.7916 and 7.576
same,Supplementary Figure 1 dose-response value,[2]; concentration 0.0128 nM,7.7612 and 17.627 and 12.0633
same,Supplementary Figure 1 dose-response value,[2]; concentration 0.064 nM,6.7018 and 5.872 and 12.3383
same,Supplementary Figure 1 dose-response value,[2]; concentration 0.32 nM,3.446 and 4.916 and 7.303
same,Supplementary Figure 1 dose-response value,[2]; concentration 1.6 nM,10.6531 and 8.102 and 5.996
same,Supplementary Figure 1 dose-response value,[2]; concentration 8 nM,14.5931 and 12.2206 and 13.5025
same,Supplementary Figure 1 dose-response value,[2]; concentration 40 nM,11.4708 and 19.6235 and 9.068
same,Supplementary Figure 1 dose-response value,[2]; concentration 200 nM,17.1246 and 21.9524 and 27.5088
same,Supplementary Figure 1 dose-response value,[2]; concentration 1000 nM,23.4943 and 22.4951 and 16.9683
same,Supplementary Figure 1 dose-response value,[2]; concentration 5000 nM,38.5863 and 36.6933 and 43.5874
CC(C)C[C@@H](NC(=O)[C@H](C)NC(=O)CNC(=O)[C@@H](NC=O)C(C)C)C(=O)N[C@@H](C)C(=O)N[C@@H](C(=O)N[C@H](C(=O)N[C@@H](C(=O)N[C@@H](Cc1c[nH]c2ccccc12)C(=O)N[C@@H](C(=O)N[C@@H](Cc1c[nH]c2ccccc12)C(=O)N[C@@H](C(=O)N[C@@H](Cc1c[nH]c2ccccc12)C(=O)N[C@@H](C(=O)N[C@@H](Cc1c[nH]c2ccccc12)C(=O)NCCO)C(C)C)C(C)C)C(C)C)C(C)C)C(C)C)C(C)C [B03] (For-VGA[dL]A[dV]V[dV]W[dV]W[dV]W[dV]W-NHCH2CH2OH),IC50,[1]; Cytotoxicity IC50,38 nM
same,IC50,[1]; [3],35.9 nM
same,IC50,[1]; [4],37.6 ± 1.56 nM
same,Supplementary Figure 1 dose-response value,[2]; concentration 0.000512 nM,5.505 and 15.3461 and 13.2964
same,Supplementary Figure 1 dose-response value,[2]; concentration 0.00256 nM,8.036 and 15.949 and 9.456
same,Supplementary Figure 1 dose-response value,[2]; concentration 0.0128 nM,13.2228 and 16.5208 and 14.0976
same,Supplementary Figure 1 dose-response value,[2]; concentration 0.064 nM,9.063 and 6.7749 and 3.531
same,Supplementary Figure 1 dose-response value,[2]; concentration 0.32 nM,12.8598 and 15.0844 and 11.8922
same,Supplementary Figure 1 dose-response value,[2]; concentration 1.6 nM,5.299 and 14.829 and 8.996
same,Supplementary Figure 1 dose-response value,[2]; concentration 8 nM,22.9494 and 19.7369 and 18.966
same,Supplementary Figure 1 dose-response value,[2]; concentration 40 nM,32.4215 and 16.7903 and 25.2195
same,Supplementary Figure 1 dose-response value,[2]; concentration 200 nM,37.1629 and 34.3426 and 29.4644
same,Supplementary Figure 1 dose-response value,[2]; concentration 1000 nM,37.6674 and 31.8257 and 42.0921
same,Supplementary Figure 1 dose-response value,[2]; concentration 5000 nM,72.3831 and 71.3728 and 73.9246
CC(C)C[C@@H](NC(=O)[C@H](C)NC(=O)CNC(=O)[C@@H](NC=O)C(C)C)C(=O)N[C@@H](C)C(=O)N[C@H](CC(C)C)C(=O)N[C@H](C(=O)N[C@H](CC(C)C)C(=O)N[C@@H](Cc1c[nH]c2ccccc12)C(=O)N[C@H](CC(C)C)C(=O)N[C@@H](Cc1c[nH]c2ccccc12)C(=O)N[C@@H](C(=O)N[C@@H](Cc1c[nH]c2ccccc12)C(=O)N[C@@H](C(=O)N[C@@H](Cc1c[nH]c2ccccc12)C(=O)NCCO)C(C)C)[C@H](C)O)C(C)C [B11] (For-VGA[dL]A[dL]V[dL]W[dL]W[dT]W[dV]W-NHCH2CH2OH),IC50,[1]; [3],289 nM
same,IC50,[1]; [4],250 ± 57.7 nM
same,Supplementary Figure 1 dose-response value,[2]; concentration 0.000512 nM,5.494 and 6.863 and 12.708
same,Supplementary Figure 1 dose-response value,[2]; concentration 0.00256 nM,14.2851 and 9.552 and 1.714
same,Supplementary Figure 1 dose-response value,[2]; concentration 0.0128 nM,7.111 and 13.4023 and 5.9017
same,Supplementary Figure 1 dose-response value,[2]; concentration 0.064 nM,7.045 and 5.618 and 12.7128
same,Supplementary Figure 1 dose-response value,[2]; concentration 0.32 nM,7.504 and 4.742 and -0.9072
same,Supplementary Figure 1 dose-response value,[2]; concentration 1.6 nM,6.643 and 8.722 and 7.953
same,Supplementary Figure 1 dose-response value,[2]; concentration 8 nM,9.977 and 11.641 and 10.0816
same,Supplementary Figure 1 dose-response value,[2]; concentration 40 nM,10.5587 and 19.8477 and 14.3879
same,Supplementary Figure 1 dose-response value,[2]; concentration 200 nM,16.8668 and 21.6675 and 22.4815
same,Supplementary Figure 1 dose-response value,[2]; concentration 1000 nM,29.3702 and 19.1829 and 26.8244
same,Supplementary Figure 1 dose-response value,[2]; concentration 5000 nM,51.942 and 51.7671 and 63.4556
